For one data set, the system named is Colinus virginianus. Particulars: acute, oral, mortality.
For another data set, the system named is Tagia sp. As to conditions: for LC50: acute, mortality.
Another data set has as its system Lepomis macrochirus. As to conditions: acute; duration: 96 hours; mortality.
For the next data set, the system named is Anas platyrhynchos. As to conditions: for LC50: short-term, oral, feed, mortality.
The next data set relates to Daphnia magna. Particulars: chronic/long-term; duration: 21 days; reproduction.
The test system of a further data set is Orius insidiosus. The data set is described as follows: LR50; higher = less toxic. As to conditions: not reported; mortality.
A further data set has as its system Aphidius rhopalosiphi. The data set is described as follows: LR50; higher = less toxic. As to conditions: not reported; mortality.
For the next data set, the system named is Apis mellifera. Particulars: acute, duration: 48 hours, mortality.
A further data set concerns Plant. Particulars: not reported; no effects.
The next data set concerns Rattus norvegicus. Particulars: for NOAEL: reproduction developmental.

In brackets after ≈: the same amount, converted by molar mass.

Broadly, the LOAEL is the lowest tested level that showed an adverse finding. As a reminder, the NOAEL is the highest tested level that showed no adverse finding.

In the case of `CNC(=O)ON=C(C)SC` [Methomyl], the LD50 in the data set on Colinus virginianus turned out to be 24.2 mg/kg-day. The LC50 in the data set on Tagia sp. (duration: 14 days) amounted to 19 mg/kg; in the data set on Lepomis macrochirus it was 0.62 mg/L (≈ 3.82 µM); in the data set on Anas platyrhynchos it was 658 mg/kg-day. In the data set with Daphnia magna, the NOEC amounted to 0.0016 mg/L.
In the case of `CSC(C)=NOC(=O)N(C)SN(C)C(=O)ON=C(C)SC` [Thiodicarb], the LR50 in the data set on Orius insidiosus came to 25.4 g/ha; in the data set on Aphidius rhopalosiphi it was 0.4 g/ha. The LD50 in the data set on Apis mellifera (dermal) is 3.1 µg/piece; in the data set with Apis mellifera (oral, unspecified), 0.153 µg/piece; in the data set on Colinus virginianus, 2020 mg/kg-day; in the data set on Rattus norvegicus (acute, oral, mortality), 50 mg/kg-day. Besides, the LC50 was above 5620 mg/kg with Colinus virginianus (diet), 38.5 mg/kg with Tagia sp., 1.4 mg/L (≈ 3.95 µM) with Lepomis macrochirus and above 5620 mg/kg in the data set with Anas platyrhynchos. Further, the NOEC in the data set on Tagia sp. (chronic/long-term) turned out to be 2 mg/kg; with Anas platyrhynchos (reproductive) it was 500 mg/kg. In the data set with Plant, this compound showed an LEL of 950 g/ha. In the data set with Rattus norvegicus (acute, oral, gavage, neurology), the LOAEL is below 5 mg/kg-day. Moreover, the NOAEL turned out to be 1 mg/kg-day in the data set with Rattus norvegicus (body weight); 7 mg/kg-day in the data set with Rattus norvegicus (oral, diet, mortality); 84 mg/kg-day with Rattus norvegicus (reproduction).

For the origin of these results see EPA's ToxValDB 9.5 (doi:10.2903/j.efsa.2006.55r).
